Laboratory results reported in patent US20110008465A1, “SESQUITERPENE FORMULATIONS, KITS AND METHODS OF USE THEREOF” (priority 2007, published 2011).

Experiments:
[1] = system: U-251 (human glioblastoma); assay: Chou and Talalay combination assay with beta-caryophyllene; type: cell-based; details: anticancer drug in combination with beta-caryophyllene; Chou and Talalay CI; 48 h
Protocol: (§1) Each solution was prepared fresh and use within 1 hour after preparation.
(§2) Cells were then harvested using trypsine-EDTA. Cells were counted using a hemocytometer and resuspended in DMEM+10% FBS medium.
(§3) Proliferation assay: Increasing concentrations of the anticancer agents and/or beta-caryophyllene were added to 96-well plate (100 μL per well). The final concentration of solvent in the culture medium was maintained below 0.5% (volume/volume) to avoid solvent toxicity.
(§4) The cells were incubated for 48 h at 37° C. and 5% CO2. Cytotoxicity was assessed using the resazurin reduction test (O'Brien et al., 2000). Fluorescence was measured on an automated 96-well Fluoroskan Ascent FI™ plate reader (Labsystems) using excitation and emission wavelengths of 530 nm and 590 nm, respectively. Resazurin was then removed.
(§5) Microplates were frozen at −20° C. overnight. Plates were thawed, a volume of 100 μl of 0.01% SDS in water was added to the wells, the plates were shaken at room temperature for 3 hours and then frozen once more at −20° C. overnight. […] Plates were shaken in the dark (at room temperature) for at least 2 hours, and fluorescence was measured on an automated 96-well Fluoroskan Ascent FI™ plate reader (Labsystems) using excitation and emission wavelengths of 360 nm and 460 nm, respectively.
(§6) Results were analyzed using the Chou and Talalay method (9) and may be interpreted as follow: Cl>1 represents an antagonist effect of beta-caryophyllene with the corresponding anticancer agent; Cl=1 represents an additive effect of beta-caryophyllene with the corresponding anticancer agent; Cl<1 represents a potentiating effect of beta-caryophyllene with the corresponding anticancer agent.

[2] = system: B16 (murine melanoma); assay: as above; type: cell-based; details: anticancer drug in combination with beta-caryophyllene; Chou and Talalay CI; 48 h
Protocol: as §1, §2, §3, §4, §5, §6

[3] = system: GL-261 (murine glioblastoma); assay: as above; type: cell-based; details: anticancer drug in combination with beta-caryophyllene; Chou and Talalay CI; 48 h
Protocol: as §1, §2, §3, §4, §5, §6

[4] = system: MEL-2 (human melanoma); assay: as above; type: cell-based; details: anticancer drug in combination with beta-caryophyllene; Chou and Talalay CI; 48 h
Protocol: as §1, §2, §3, §4, §5, §6

[5] = system: MCF-7 (breast cancer); assay: as above; type: cell-based, human; details: anticancer drug in combination with beta-caryophyllene; Chou and Talalay CI; 48 h
Protocol: as §1, §2, §3, §4, §5, §6

[6] = system: DLD-1 (colon cancer); assay: as above; type: cell-based, human; details: anticancer drug in combination with beta-caryophyllene; Chou and Talalay CI; 48 h
Protocol: as §1, §2, §3, §4, §5, §6

[7] = system: MDA-MB-231 (breast cancer); assay: as above; type: cell-based, human; details: anticancer drug in combination with beta-caryophyllene; Chou and Talalay CI; 48 h
Protocol: as §1, §2, §3, §4, §5, §6

[8] = system: A-549 (lung cancer); assay: as above; type: cell-based, human; details: anticancer drug in combination with beta-caryophyllene; Chou and Talalay CI; 48 h
Protocol: as §1, §2, §3, §4, §5, §6

[9] = system: PA-1 (ovary cancer); assay: as above; type: cell-based, human; details: anticancer drug in combination with beta-caryophyllene; Chou and Talalay CI; 48 h
Protocol: as §1, §2, §3, §4, §5, §6

[10] = system: PC-3 (prostate cancer); assay: as above; type: cell-based, human; details: anticancer drug in combination with beta-caryophyllene; Chou and Talalay CI; 48 h
Protocol: as §1, §2, §3, §4, §5

[11] = system: tumor cell lines; assay: Comparative potentiating effect of beta-caryophyllene and Tesmilifene (DPPE) combined with 5 antitumor classes; type: cell-based
Protocol: as §1, §2, §3, §4, §5, §6

## O=C(O)CCCc1ccc(N(CCCl)CCCl)cc1 [Chlorambucil, chlorambucil]
[1]
  Potentiating activity U-251: (2) (High: CI < 0.5 to IC50)
[2]
  Potentiating activity B16: (1) (Very High: potentiating or additive activity to IC20 and CI < 0.6 to IC50)
[3]
  Potentiating activity GL-261: (6) (Antagonist effect: CI > 1)
[4]
  Potentiating activity MEL-2: (1) (Very High: potentiating or additive activity to IC20 and CI < 0.6 to IC50)
[5]
  Potentiating activity MCF-7: (1) (Very High: CI equal or below 1 at IC20 and Cl below 0.6 to IC50)
[6]
  Potentiating activity DLD-1: (3) (Moderate: 0.5 < CI < 0.8 at IC50)
[7]
  Potentiating activity MDA: (1) (Very High: CI equal or below 1 at IC20 and Cl below 0.6 to IC50)
[8]
  Potentiating activity A-549: (3) (Moderate: 0.5 < CI < 0.8 at IC50)
[9]
  Potentiating activity PA-1: (3) (Moderate: 0.5 < CI < 0.8 to IC50)

## N.N.[Cl][Pt][Cl] [Cisplatine, Cisplatin]
[10]
  Potentiating activity PC-3: (6) (Antagonist effect: CI > 1)
[1]
  Potentiating activity U-251: (6) (Antagonist effect: CI > 1)
[2]
  Potentiating activity B16: (1) (Very High: potentiating or additive activity to IC20 and CI < 0.6 to IC50)
[3]
  Potentiating activity GL-261: (6) (Antagonist effect: CI > 1)
[4]
  Potentiating activity MEL-2: (1) (Very High: potentiating or additive activity to IC20 and CI < 0.6 to IC50)
[5]
  Potentiating activity MCF-7: (2) (High: CI below 0.5 at IC50)
[6]
  Potentiating activity DLD-1: (1) (Very High: CI equal or below 1 at IC20 and Cl below 0.6 to IC50)
[7]
  Potentiating activity MDA: (3) (Moderate: 0.5 < CI < 0.8 at IC50)
[8]
  Potentiating activity A-549: (2) (High: CI below 0.5 at IC50)
[9]
  Potentiating activity PA-1: (2) (High: CI < 0.5 to IC50)

## CCN(CC)CCOc1ccc(Cc2ccccc2)cc1 [DPPE, Tesmilifene]
[11]; class (1) Very High
  Alkylating agents %: 25%
  Alkylating agents Total (60): 15
  Antimitotic agents %: 25%
  Antimitotic agents Total (40): 10
  RNA/DNA antimetabolites %: 30%
  RNA/DNA antimetabolites Total (20): 6
  Topoisomerase II inhibitors %: 18%
  Topoisomerase II inhibitors Total (40): 7
  kinase inhibitors %: 30%
  kinase inhibitors Total (20): 6
[11]; class (2) High
  Alkylating agents %: 20%
  Alkylating agents Total (60): 12
  Antimitotic agents %: 20%
  Antimitotic agents Total (40): 8
  RNA/DNA antimetabolites %: 15%
  RNA/DNA antimetabolites Total (20): 3
  Topoisomerase II inhibitors %: 13%
  Topoisomerase II inhibitors Total (40): 5
  kinase inhibitors %: 25%
  kinase inhibitors Total (20): 5
[11]; class (3) Moderate
  Alkylating agents %: 23%
  Alkylating agents Total (60): 14
  Antimitotic agents %: 30%
  Antimitotic agents Total (40): 12
  RNA/DNA antimetabolites %: 15%
  RNA/DNA antimetabolites Total (20): 3
  Topoisomerase II inhibitors %: 30%
  Topoisomerase II inhibitors Total (40): 12
  kinase inhibitors %: 45%
  kinase inhibitors Total (20): 9
[11]; class (4) Weak
  Alkylating agents %: 10%
  Alkylating agents Total (60): 6
  Antimitotic agents %: 15%
  Antimitotic agents Total (40): 6
  RNA/DNA antimetabolites %: 10%
  RNA/DNA antimetabolites Total (20): 2
  Topoisomerase II inhibitors %: 10%
  Topoisomerase II inhibitors Total (40): 4
  kinase inhibitors %: 0%
  kinase inhibitors Total (20): 0
[11]; class (5) Additive effect
  Alkylating agents %: 5%
  Alkylating agents Total (60): 3
  Antimitotic agents %: 0%
  Antimitotic agents Total (40): 0
  RNA/DNA antimetabolites %: 0%
  RNA/DNA antimetabolites Total (20): 0
  Topoisomerase II inhibitors %: 5%
  Topoisomerase II inhibitors Total (40): 2
  kinase inhibitors %: 0%
  kinase inhibitors Total (20): 0
[11]; class (6) Antagonist effect
  Alkylating agents %: 17%
  Alkylating agents Total (60): 10
  Antimitotic agents %: 10%
  Antimitotic agents Total (40): 4
  RNA/DNA antimetabolites %: 30%
  RNA/DNA antimetabolites Total (20): 6
  Topoisomerase II inhibitors %: 25%
  Topoisomerase II inhibitors Total (40): 10
  kinase inhibitors %: 0%
  kinase inhibitors Total (20): 0
[11]; drugs tested at their IC50 values
  drugs exhibiting a potentiating effect when combined: 81%

## CN(C)/N=N/c1[nH]cnc1C(N)=O [Dacarbazine, dacarbazine]
[10]
  Potentiating activity PC-3: (4) (Weak: 0.8 < CI < 1 to IC50)
[1]
  Potentiating activity U-251: (1) (Very High: potentiating or additive activity to IC20 and CI < 0.6 to IC50)
[2]
  Potentiating activity B16: (1) (Very High: potentiating or additive activity to IC20 and CI < 0.6 to IC50)
[3]
  Potentiating activity GL-261: (2) (High: CI < 0.5 to IC50)
[4]
  Potentiating activity MEL-2: (1) (Very High: potentiating or additive activity to IC20 and CI < 0.6 to IC50)
[5]
  Potentiating activity MCF-7: (1) (Very High: CI equal or below 1 at IC20 and Cl below 0.6 to IC50)
[6]
  Potentiating activity DLD-1: (3) (Moderate: 0.5 < CI < 0.8 at IC50)
[7]
  Potentiating activity MDA: (1) (Very High: CI equal or below 1 at IC20 and Cl below 0.6 to IC50)
[8]
  Potentiating activity A-549: (2) (High: CI below 0.5 at IC50)
[9]
  Potentiating activity PA-1: (1) (Very High: potentiating or additive activity to IC20 and CI < 0.6 to IC50)
